Laboratory results as given in US20230002359A1, “PESTICIDALLY ACTIVE FUSED BICYCLIC HETEROAROMATIC COMPOUNDS” (priority 2019, published 2023).

How the values were obtained:
Type in all cases: in vivo
[1] = test system: Myzus persicae (Green Peach Aphid); assay: Example B5: Myzus persicae (green peach aphid) feeding/contact activity, sunflower leaf discs; details: foliar, 144 h, application rate of 200 ppm, 6 days after infestation
Method: Sunflower leaf discs were placed onto agar in a 24-well microtiter plate and sprayed with aqueous test solutions prepared from 10′000 ppm DMSO stock solutions. After drying, the leaf discs were infested with an aphid population of mixed ages. The samples were assessed for mortality 6 days after infestation.

[2] = test system: Chilo suppressalis (Striped Rice Stemborer); assay: Example B3: Chilo suppressalis (striped rice stemborer), artificial diet, L2 larvae; details: 144 h, application rate of 200 ppm, 6 days after infestation, L2 larvae, read-out: control in at least one of the three categories (mortality, anti-feedant effect, or growth inhibition)
Summary of the method: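 Artificial diet in wells was treated with aqueous test solutions diluted from 10'000 ppm DMSO stocks, dried, then infested with 6-8 L2 larvae per well. Mortality, anti-feeding effect and growth inhibition were scored against untreated samples 6 days after infestation; control means any category exceeds the untreated sample.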

[3] = test system: Plutella xylostella (Diamond Back Moth); assay: Example B4: Plutella xylostella (diamond back moth), artificial diet, eggs, 24-well; details: 192 h, application rate of 200 ppm, 8 days after infestation, eggs, read-out: control in at least one of the two categories (mortality or growth inhibition)
Method: 24-well microtiter plates with artificial diet were treated with aqueous test solutions prepared from 10′000 ppm DMSO stock solutions by pipetting. After drying, Plutella eggs were pipetted through a plastic stencil onto a gel blotting paper and the plate was closed with it. The samples were assessed for mortality and growth inhibition in comparison to untreated samples 8 days after infestation.

[4] = test system: Myzus persicae (Green Peach Aphid); assay: Example B6: Myzus persicae (green peach aphid) intrinsic activity, sucrose solution; details: 120 h, test rate of 12 ppm, 5 days after infestation, intrinsic activity, read-out: mortality
Summary of the method: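 Compounds from 10′000 ppm DMSO stocks were mixed into sucrose solution in 24-well plates sealed with Parafilm. Aphid-infested pea seedlings were set on the membrane and the plate inverted so aphids fed through it. Mortality scored 5 days after infestation.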

[5] = test system: Diabrotica Balteata (Corn Root Worm); assay: Example B1: Diabrotica balteata (corn root worm), maize sprouts sprayed, L2 larvae; details: 96 h, application rate of 200 ppm, 4 days after infestation, L2 larvae, read-out: control in at least one of the two categories (mortality or growth inhibition)
Summary of the method: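 Read-out is mortality plus growth inhibition relative to untreated controls, assessed 4 days after infestation. Sprouts resting on agar are sprayed with aqueous solutions derived from 10′000 ppm DMSO stocks and left to dry before L2 larvae (6 to 10 per well) are added.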

[6] = test system: Euschistus heros (Neotropical Brown Stink Bug); assay: Example B2: Euschistus heros (neotropical brown stink bug), soybean leaves sprayed, N2 nymphs; details: 120 h, application rate of 200 ppm, 5 days after infestation, N2 nymphs, read-out: control in at least one of the two categories (mortality or growth inhibition)
Method: Soybean leaves on agar in 24-well microtiter plates were sprayed with aqueous test solutions prepared from 10′000 ppm DMSO stock solutions. After drying the leaves were infested with N2 nymphs. The samples were assessed for mortality and growth inhibition in comparison to untreated samples 5 days after infestation.

[7] = test system: Spodoptera littoralis (Egyptian Cotton Leaf Worm); assay: Example B7: Spodoptera littoralis (Egyptian cotton leaf worm), cotton leaf discs sprayed, L1 larvae; details: foliar, 72 h, application rate of 200 ppm, 3 days after infestation, L1 larvae, read-out: control in at least one of the three categories (mortality, anti-feedant effect, or growth inhibition)
Summary of the method: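 Five L1 larvae per sprayed, dried cotton leaf disc on agar. Activity is counted when mortality, anti-feedant effect or growth inhibition exceeds the untreated sample at day 3.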

C[C@H](Nc1ncnc2c(C(F)(F)F)cc(C(F)(F)F)cc12)c1ncnn1-c1ncccn1 [P.1, N-[(1S)-1-(2-pyrimidin-2-yl-1,2,4-triazol-3-yl)ethyl]-6,8-bis(trifluoromethyl)quina-zolin-4-amine]
≥ 80%: mortality at 200 ppm [1] | percent control (mortality, anti-feedant effect or growth inhibition) at 200 ppm [2] | percent control (mortality or growth inhibition) at 200 ppm [3] | mortality at 12 ppm [4] | percent control (mortality or growth inhibition) at 200 ppm [5] | percent control (mortality or growth inhibition) at 200 ppm [6] | percent control (mortality, anti-feedant effect or growth inhibition) at 200 ppm [7]

CCN(c1ncnc2c(C(F)(F)F)cc(C(F)(F)F)cc12)C(C)c1ncnn1-c1ccc(C#N)cn1 (centres unmarked) [P.6, 6-[5-[1-[[6,8-bis(trifluoromethyl)quina-zolin-4-yl]-ethyl-amino]ethyl]-1,2,4-triazol-1-yl]pyridine-3-carbonitrile]
≥ 80%: mortality at 200 ppm [1] | percent control (mortality, anti-feedant effect or growth inhibition) at 200 ppm [2] | percent control (mortality or growth inhibition) at 200 ppm [3] | mortality at 12 ppm [4] | percent control (mortality or growth inhibition) at 200 ppm [5] | percent control (mortality or growth inhibition) at 200 ppm [6] | percent control (mortality, anti-feedant effect or growth inhibition) at 200 ppm [7]

C[C@@H](c1ncnn1-c1ccc(C#N)cn1)N(C)c1ncnc2c(C(F)(F)F)cc(Cl)cc12 [P.21, 6-[5-[(1S)-1-[[6-chloro-8-(trifluoromethyl)quinazolin-4-yl]-methyl-amino]ethyl]-1,2,4-triazol-1-yl]pyridine-3-carbonitrile]
≥ 80%: mortality at 200 ppm [1] | percent control (mortality, anti-feedant effect or growth inhibition) at 200 ppm [2] | percent control (mortality or growth inhibition) at 200 ppm [3] | mortality at 12 ppm [4] | percent control (mortality or growth inhibition) at 200 ppm [5] | percent control (mortality or growth inhibition) at 200 ppm [6] | percent control (mortality, anti-feedant effect or growth inhibition) at 200 ppm [7]

C[C@@H](c1ncnn1-c1ncccn1)N(C)c1ncnc2c(C(F)(F)F)cc(Cl)cc12 [P.23, 6-chloro-N-methyl-N-[(1S)-1-(2-pyrimidin-2-yl-1,2,4-triazol-3-yl)ethyl]-8-(trifluoromethyl)quinazolin-4-amine]
≥ 80%: mortality at 200 ppm [1] | percent control (mortality, anti-feedant effect or growth inhibition) at 200 ppm [2] | percent control (mortality or growth inhibition) at 200 ppm [3] | mortality at 12 ppm [4] | percent control (mortality or growth inhibition) at 200 ppm [5] | percent control (mortality or growth inhibition) at 200 ppm [6] | percent control (mortality, anti-feedant effect or growth inhibition) at 200 ppm [7]

C[C@@H](c1ncnn1-c1ncccn1)N(C)c1ncnc2c(C(F)(F)F)cc(C(F)(F)F)cc12 [P.26, N-methyl-N-[(1S)-1-(2-pyrimidin-2-yl-1,2,4-triazol-3-yl)ethyl]-6,8-bis(trifluoromethyl)quina-zolin-4-amine]
≥ 80%: mortality at 200 ppm [1] | percent control (mortality, anti-feedant effect or growth inhibition) at 200 ppm [2] | percent control (mortality or growth inhibition) at 200 ppm [3] | mortality at 12 ppm [4] | percent control (mortality or growth inhibition) at 200 ppm [5] | percent control (mortality or growth inhibition) at 200 ppm [6] | percent control (mortality, anti-feedant effect or growth inhibition) at 200 ppm [7]

CC(c1ncnn1-c1ncccn1)N(C)c1ncnc2c(C(F)(F)F)cc(C(F)(F)F)cc12 (centres unmarked) [P.27, N-methyl-N-[1-(2-pyrimidin-2-yl-1,2,4-triazol-3-yl)ethyl]-6,8-bis(trifluoromethyl)quinazolin-4-amine]
≥ 80%: mortality at 200 ppm [1] | percent control (mortality, anti-feedant effect or growth inhibition) at 200 ppm [2] | percent control (mortality or growth inhibition) at 200 ppm [3] | mortality at 12 ppm [4] | percent control (mortality or growth inhibition) at 200 ppm [5] | percent control (mortality or growth inhibition) at 200 ppm [6] | percent control (mortality, anti-feedant effect or growth inhibition) at 200 ppm [7]

CC(c1ncnn1-c1ccc(C#N)cn1)N(C)c1ncnc2c(C(F)(F)F)cc(C(F)(F)F)cc12 (centres unmarked) [P.28, 6-[5-[1-[[6,8-bis(trifluoromethyl)quina-zolin-4-yl]-methyl-amino]ethyl]-1,2,4-triazol-1-yl]pyridine-3-carbonitrile]
≥ 80%: mortality at 200 ppm [1] | percent control (mortality, anti-feedant effect or growth inhibition) at 200 ppm [2] | percent control (mortality or growth inhibition) at 200 ppm [3] | mortality at 12 ppm [4] | percent control (mortality or growth inhibition) at 200 ppm [5] | percent control (mortality or growth inhibition) at 200 ppm [6] | percent control (mortality, anti-feedant effect or growth inhibition) at 200 ppm [7]

C[C@@H](c1ncnn1-c1ccc(C#N)cn1)N(C)c1ncnc2c(C(F)(F)F)cc(C(F)(F)F)cc12 [P.54, 6-[5-[(1S)-1-[[6,8-bis(trifluoromethyl)quina-zolin-4-yl]-methyl-amino]ethyl]-1,2,4-triazol-1-yl]pyridine-3-carbonitrile]
≥ 80%: mortality at 200 ppm [1] | percent control (mortality, anti-feedant effect or growth inhibition) at 200 ppm [2] | percent control (mortality or growth inhibition) at 200 ppm [3] | mortality at 12 ppm [4] | percent control (mortality or growth inhibition) at 200 ppm [5] | percent control (mortality or growth inhibition) at 200 ppm [6] | percent control (mortality, anti-feedant effect or growth inhibition) at 200 ppm [7]

CCN(c1ncnc2c(C(F)(F)F)cc(Cl)cc12)[C@@H](C)c1ncnn1-c1ccc(C#N)cn1 [P.128, 6-[5-[(1S)-1-[[6-chloro-8-(trifluoromethyl)quinazolin-4-yl]-ethyl-amino]ethyl]-1,2,4-triazol-1-yl]pyridine-3-carbonitrile]
≥ 80%: mortality at 200 ppm [1] | percent control (mortality, anti-feedant effect or growth inhibition) at 200 ppm [2] | percent control (mortality or growth inhibition) at 200 ppm [3] | mortality at 12 ppm [4] | percent control (mortality or growth inhibition) at 200 ppm [5] | percent control (mortality or growth inhibition) at 200 ppm [6] | percent control (mortality, anti-feedant effect or growth inhibition) at 200 ppm [7]

CCN(c1ncnc2c(C(F)(F)F)cc(C(F)(F)F)cc12)[C@@H](C)c1ncnn1-c1ccc(C#N)cn1 [P.168, 6-[5-[(1S)-1-[[6,8-bis(trifluoromethyl)quina-zolin-4-yl]-ethyl-amino]ethyl]-1,2,4-triazol-1-yl]pyridine-3-carbonitrile]
≥ 80%: mortality at 200 ppm [1] | percent control (mortality, anti-feedant effect or growth inhibition) at 200 ppm [2] | percent control (mortality or growth inhibition) at 200 ppm [3] | mortality at 12 ppm [4] | percent control (mortality or growth inhibition) at 200 ppm [5] | percent control (mortality or growth inhibition) at 200 ppm [6] | percent control (mortality, anti-feedant effect or growth inhibition) at 200 ppm [7]

CC(c1ncnn1-c1ncccn1)N(C)c1ncnc2c(Br)cc(Cl)cc12 (centres unmarked) [P.172, 8-bromo-6-chloro-N-methyl-N-[1-(2-pyrimidin-2-yl-1,2,4-triazol-3-yl)ethyl]quinazolin-4-amine]
≥ 80%: mortality at 200 ppm [1] | percent control (mortality, anti-feedant effect or growth inhibition) at 200 ppm [2] | percent control (mortality or growth inhibition) at 200 ppm [3] | mortality at 12 ppm [4] | percent control (mortality or growth inhibition) at 200 ppm [5] | percent control (mortality or growth inhibition) at 200 ppm [6] | percent control (mortality, anti-feedant effect or growth inhibition) at 200 ppm [7]

CC(c1ncnn1-c1ccc(F)cn1)N(C)c1ncnc2c(C(F)(F)F)cc(Br)cc12 (centres unmarked) [P.188, 6-bromo-N-[1-[2-(5-fluoro-2-pyridyl)-1,2,4-triazol-3-yl]ethyl]-N-methyl-8-(trifluoromethyl)quinazolin-4-amine]
≥ 80%: mortality at 200 ppm [1] | percent control (mortality, anti-feedant effect or growth inhibition) at 200 ppm [2] | percent control (mortality or growth inhibition) at 200 ppm [3] | mortality at 12 ppm [4] | percent control (mortality or growth inhibition) at 200 ppm [5] | percent control (mortality or growth inhibition) at 200 ppm [6]

C[C@@H](c1ncnn1-c1ccc(C(N)=S)cn1)N(C)c1ncnc2c(C(F)(F)F)cc(C(F)(F)F)cc12 [P.190, 6-[5-[(1S)-1-[[6,8-bis(trifluoromethyl)quinazolin-4-yl]-methyl-amino]ethyl]-1,2,4-triazol-1-yl]pyridine-3-carbothioamide]
≥ 80%: mortality at 200 ppm [1] | percent control (mortality, anti-feedant effect or growth inhibition) at 200 ppm [2] | percent control (mortality or growth inhibition) at 200 ppm [3] | mortality at 12 ppm [4] | percent control (mortality or growth inhibition) at 200 ppm [5] | percent control (mortality or growth inhibition) at 200 ppm [6]

C[C@@H](c1ncnn1-c1ccc(C(N)=S)cn1)N(C)c1ncnc2c(C(F)(F)F)cc(Cl)cc12 [P.191, 6-[5-[(1S)-1-[[6-chloro-8-(trifluoromethyl)quinazolin-4-yl]-methyl-amino]ethyl]-1,2,4-triazol-1-yl]pyridine-3-carbothioamide]
≥ 80%: mortality at 200 ppm [1] | percent control (mortality, anti-feedant effect or growth inhibition) at 200 ppm [2] | percent control (mortality or growth inhibition) at 200 ppm [3] | mortality at 12 ppm [4] | percent control (mortality or growth inhibition) at 200 ppm [5] | percent control (mortality or growth inhibition) at 200 ppm [6]
